Measurements as given in ChEMBL document CHEMBL3392976, “The discovery of novel 3-(pyrazin-2-yl)-1H-indazoles as potent pan-Pim kinase inhibitors” (Bioorg Med Chem Lett, 2015).

Key:
in vivo [1] = conditions: Sprague-Dawley, rat, po, 5 mg/kg
in vivo [2] = conditions: Sprague-Dawley, rat, iv, 2 mg/kg
in vivo [3] = conditions: Sprague-Dawley, rat, iv, 2 mg/kg; remark: listed apart in the source
in vivo [4] = conditions: Sprague-Dawley, rat, iv, 2 mg/kg; remark: listed apart in the source
in vivo [5] = conditions: Sprague-Dawley, rat, plasma, po, 5 mg/kg

`Fc1cccc(F)c1-c1ccc2[nH]nc(-c3cncc(O[C@H]4CNCCC45CC5)n3)c2c1` gave a bioavailability (in vivo [1]) of 89%, a clearance (in vivo [2]) of 16.7 mL/min/kg and a Vd (in vivo [3]) of 3.7 L/kg. For the same compound, the half-life (in vivo [4]) was 2.7 h and the AUC (in vivo [5]) was 12.2 µM·h.
